According to patent USRE49918E1, “Cytotoxic benzodiazepine derivatives” (priority 2011, dated 2024):
Where two headings read alike, the source gives them in different places.

B1: huMy9-6-Drug 2 (conjugate, chains of the INN, looked up)
VH: QVQLVESGGGVVQPGRSLRLSCAASGFTFSSFGMHWVRQAPGKGLEWVAYISSGSFTIYYADSVKGRFTISRDNSKNTLYLQMNSLRAEDTAVYYCARMRKGYAMDYWGQGTLVTVSS
VL: DVVMTQSPLSLPVTLGQPASISCRSSQIIIHSDGNTYLEWFQQRPGQSPRRLIYKVSNRFSGVPDRFSGSGSGTDFTLKISRVEAEDVGVYYCFQGSHVPHTFGQGTKVEIK
modifications: Drug 2 payload

How the values were obtained:
[1] = system: HL60/QC cells; assay: In vitro potency (WST-8 cell viability assay), HL60/QC; type: cell-based, human
Protocol: (§1) General Procedure Used: Samples of unconjugated free drug compounds or drug conjugates were added to 96-well flat bottomed tissue culture plates and titrated using serial dilutions to cover the desired molar range. Antigen positive (Ag^+) or Antigen negative (Ag^−) cells were added to the wells in specific cell densities in such a way that there were triplicate samples for each drug concentration for each corresponding cell line. The plates were then incubated at 37° C. in an atmosphere of 5% CO2 for 4-5 days depending on the cell line. COLO 205 (1,000 cells/well), Namalwa (3,000 cells/well), HEL 92.1.7 (3,000 cells/well)—4 days; RH30 (1,000 cells/well), HL60/QC (5,000 cells/well), Ramos (10,000 cells/well), KB (2,000 cells/well), BJAB (2,000 cells/well), NB4 (3,000 cells/well)—5 days, RPMI 8226 (8,000 cells/well)—6 days.
(§2) At the end of the incubation period cytotoxic potencies were then assessed using a WST-8 based cell viability assay and surviving cells were measured by developing with WST-8 (2-7 hours). The absorbance in each well was measured and the surviving fraction of cells at each concentration was plotted to reveal the cytotoxicity and/or antigen specificity (of the conjugates).
(§3) Using the general procedure described above, the cytotoxicity of the unconjugated free drug compounds was measured against seven cell lines: KB, a HeLa cell contaminant, HL60/QC, an acute myeloid leukemia cell line, Namalwa, a Burkitt lymphoma cell line, NB4, an acute promyelocytic leukemia cell line, HEL92.1.7, an erythroleukemia cell line, RPMI8226, a multiple myeloma cell line and BJAB, a B-cell leukemia cell line. […] The potency and specificity of the antibody-drug conjugates were measured against antigen-expressing cells, with and without the additions of an excess amount of blocking unconjugated antibody to show specificity of the killing effect. The MY9-6-drug conjugate was extremely potent towards three different antigen-expressing cells: HL60/ATCC, HL60/QC and NB-4, despite the very low antigen expression in NB4 cells. […] Similarly, the huFOLR1-drug conjugate was effective in killing antigen-expressing KB cells in a specific manner. Results are illustrated in FIGS. 25 and 26.
To compare in vitro potency measurements for the subject conjugates prepared with and without imine reactive reagent, such as sodium bisulfite, huMy9-6-BMPS-1f, huMy9-6-sulfo-SPDB-1f, and huMy9-6-Drug 2 were prepared with and without sodium bisulfite using the in situ sulfonation method (wherein the respective compounds of the invention was first mixed with sodium bisulfite and a bifunctional crosslinker bearing a reactive group, then the reaction mixture, without further purification, was reacted with the huMy9-6 monoclonal antibody as the cell-binding agent). IC50s for the conjugates on HL60-QC cells are shown below.

[2] = system: KB cells; assay: In vitro potency (WST-8 cell viability assay), KB; type: cell-based; conditions: Homo sapiens, read-out: IC50 KB
Protocol: as §1, §2, §3

[3] = system: Namalwa, a Burkitt lymphoma cell line; assay: In vitro potency (WST-8 cell viability assay), Namalwa; type: cell-based; conditions: read-out: IC50 Namalwa
Protocol: as §1, §2, §3

[4] = system: BJAB, a B-cell leukemia cell line; assay: In vitro potency (WST-8 cell viability assay), BJAB; type: cell-based; conditions: Homo sapiens, read-out: IC50 BJAB
Protocol: as §1, §2, §3

[5] = system: RPMI8226, a multiple myeloma cell line; assay: In vitro potency (WST-8 cell viability assay), RPMI8226; type: cell-based; conditions: Homo sapiens
Protocol: as §1, §2, §3

[6] = system: HEL92.1.7, an erythroleukemia cell line; assay: In vitro potency (WST-8 cell viability assay), HEL92.1.7; type: cell-based; conditions: Homo sapiens
Protocol: as §1, §2, §3

[7] = system: NB4, an acute promyelocytic leukemia cell line; assay: In vitro potency (WST-8 cell viability assay), NB4; type: cell-based; conditions: read-out: IC50 NB4
Protocol: as §1, §2, §3

[8] = Phase I clinical evaluation; cited from earlier work
[9] = system: HL60/QC tumors; assay: In vivo efficacy in HL60/QC tumor bearing nude mice; conditions: HL60-QC tumor xenografts; for T/C %: ~20 μg/kg drug dose
Protocol: In this study, the anti-tumor activity of huMY9-6-SPDB-1f was investigated in female nude mice bearing HL60/QC tumors, a human acute myeloid leukemia model. HL60/QC tumor cells, 2×10^6 cells/mouse were subcutaneously inoculated at a volume of 0.1 mL/mouse in the area over the right shoulder of female athymic nude mice, 5 weeks of age. Eight days after tumor cell inoculation mice were randomized into groups (n=6 per group) by tumor volume. Treatment was initiated the day of randomization, and groups included a control group dosed with PBS (200 μL/injection), or a single treatment at various doses (5 to 100 μg/kg) of huMY9-6-SPDB-1f (50 μg/kg 1f dose corresponded to 2.5 mg/kg antibody dose). […] The minimum effective dose was estimated to be 20 μg/kg, which is about 35-fold lower that the maximum tolerated dose.
To compare in vivo efficacy of the subject conjugates prepared with or without an imine reactive group, huMy9-6-Drug 2 were formulated with or without 50 μM sodium bisulfite, and the conjugates were used to treat mice bearing HL60-QC tumor xenografts.

[10] = Homo sapiens, HL-60, free drug, read-out: IC50 HL60/QC
[11] = RPMI-8226, free drug, read-out: IC50 RPMI8226
[12] = HEL 92.1.7, free drug, read-out: IC50 HEL92.1.7

Row | Molecule | IC50 [1, 10] | IC50 ([2]; free drug) | IC50 ([3]; free drug) | IC50 ([4]; free drug) | IC50 [5, 11] | IC50 [6, 12] | IC50 ([7]; free drug) | further results
1 | COCCOCCOCCN(CC(C)(C)S(C)=S)c1cc(COc2cc3c(cc2OC)C(=O)N2c4ccccc4C[C@H]2C=N3)cc(COc2cc3c(cc2OC)C(=O)N2c4ccccc4C[C@H]2CN3)c1 (stereo partly drawn) [Compound 1d] | 32 pM | 0.18 nM | 0.069 nM |  |  |  |  | 
2 | COc1cc2c(cc1OCc1cc(COc3cc4c(cc3OC)C(=O)N3c5ccccc5C[C@H]3CN4)cc(CSCC(C)(C)SSC)c1)NC[C@@H]1Cc3ccccc3N1C2=O [Compound 27f] | 1700 pM | 4.4 nM |  | 1 nM | > 3 nM | 1.8 nM | 1.1 nM | 
3 | COc1cc2c(cc1OCc1cccc(COc3cc4c(cc3OC)C(=O)N3c5ccccc5C[C@H]3CN4)c1)NC[C@@H]1Cc3ccccc3N1C2=O [Compound 29c] |  |  |  |  |  |  |  | IC50 ([1]; Homo sapiens, HL-60, read-out: IC50 HL60/QC): 30 pM; IC50 [2]: 0.057 nM; IC50 [4]: 0.015 nM; IC50 [3]: 0.013 nM; IC50 ([5]; RPMI-8226, read-out: IC50 RPMI8226): 0.16 nM; IC50 ([6]; HEL 92.1.7, read-out: IC50 HEL92.1.7): 0.027 nM; IC50 [7]: 0.023 nM
4 | C=C1C[C@H]2C=Nc3cc(OCCCOc4cc5c(cc4OC)C(=O)N4CC(=C)C[C@H]4C=N5)c(OC)cc3C(=O)N2C1 [SJG-136] |  |  |  |  |  |  |  | maximum tolerated dose [8]: 45 μg/m^2
5 | COc1cc2c(cc1OCc1cccc(COc3cc4c(cc3OC)C(=O)N3c5ccccc5C[C@H]3CN4)c1)N=C[C@@H]1Cc3ccccc3N1C2=O [Compound 29b] | 6 pM | 0.007 nM | 0.003 nM | 0.003 nM | 0.005 nM | 0.007 nM | 0.007 nM | 
6 | COc1cc2c(cc1OCc1cc(COc3cc4c(cc3OC)C(=O)N3c5ccccc5C[C@H]3C=N4)cc(CSCC(C)(C)SSC)c1)N=C[C@@H]1Cc3ccccc3N1C2=O [Compound 27d] | 50 pM | 0.23 nM |  | 0.04 nM | 0.07 nM | 0.14 nM | 0.039 nM | 
7 | COc1cc2c(cc1OCc1cccc(COc3cc4c(cc3OC)C(=O)N3c5ccccc5C[C@H]3C=N4)c1)N=C[C@@H]1Cc3ccccc3N1C2=O [Compound 29a] | 1 pM | 0.004 nM | 0.002 nM | 0.001 nM | 0.011 nM | 0.0031 nM | 0.0023 nM | 
8 | COc1cc2c(cc1OCc1cc(COc3cc4c(cc3OC)C(=O)N3c5ccccc5C[C@H]3CN4)cc(CSCC(C)(C)SSC)c1)N=C[C@@H]1Cc3ccccc3N1C2=O [Compound 27e] | 90 pM | 0.39 nM |  | 0.12 nM | 0.24 nM | 0.2 nM | 0.13 nM | 
9 | B1 |  |  |  |  |  |  |  | IC50 ([1]; HL60-QC cells, antigen blocking with 1 μM unconjugated huMy9-6, conjugate prepared with NaHSO3 (+), read-out: IC50 (pM) huMy9-6 blocking): > 3000 pM; IC50 ([1]; HL60-QC cells, antigen blocking with 1 μM unconjugated huMy9-6, conjugate prepared without NaHSO3 (−), read-out: IC50 (pM) huMy9-6 blocking): > 3000 pM; IC50 ([1]; HL60-QC cells, conjugate prepared with NaHSO3 treatment (+), read-out: IC50): 6.8 pM; IC50 ([1]; HL60-QC cells, conjugate prepared without NaHSO3 treatment (−), read-out: IC50): 16 pM; Minimum effective dose (μg/kg drug) ([9]; conjugate formulated with 50 μM sodium bisulfite (+)): 19 μg/kg drug; Minimum effective dose (μg/kg drug) ([9]; conjugate formulated without 50 μM sodium bisulfite (−)): 18 μg/kg drug; T/C % ([9]; formulated with 50 μM sodium bisulfite (+)): 16%; T/C % ([9]; formulated without sodium bisulfite (−)): 20%
